Patent US11279737B2, “Antimicrobial peptide variants and uses thereof” (ANTINBIO, INC., priority 2019, dated 2022)
Values after ≈ are worked out from the molar mass of the structure shown. Where a SMILES comes first, the peptide text is derived from it. Bridges are numbered along the chain shown (N, C = ends).

Experiments:
[1] = tested on: S. aureus MRSA ATCC 43300; conditions: for Minimal inhibitory concentration (MIC): ATCC 43300; for antimicrobial activity compared to wild type hegrisin (in words): S. aureus MRSA ATCC 43300
S. aureus ATCC 6538 [2] = conditions: for Minimal inhibitory concentration (MIC): ATCC 6538; for antimicrobial activity compared to wild type hegrisin (in words): S. aureus ATCC 6538, lower MIC values
S. aureus ATCC 6538 [3] = assay: inhibition zone assay; conditions: 10 μg peptide per hole, 37° C., 16-18 hours
[4] = tested on: S. epidermidis ATCC 14990; conditions: for Minimal inhibitory concentration (MIC): ATCC 14990
human erythrocytes = assay: hemolytic assay; format: cell-based; conditions: FIG. 2; for cell lysis (hemolysis) of human erythrocytes: peptide 0.5-500 μg/ml, 37° C., 60 minutes
Method: For the hemolysis assays, human erythrocytes were obtained from healthy donors, washed 3 times using sterilized PBS and re-suspended to a concentration of 2% (v/v) with PBS. The hegrisin, HCN2016-01 peptide, and plectasin (control) were diluted to concentrations of 500, 250, 125, 62.5, 32, 16, 8, 4, 2, 1, and 0.5 μg/ml. A 100 μL solution of each peptide and a 100 μL suspension of red blood cells were mixed and added to the wells of a 96-well plate. PBS was used as negative control and Triton X-100 was used as a positive control.
The samples were incubated at 37° C. for 60 minutes and gently stirred during the incubation period. Then, the samples were centrifuged at 2000 rpm for 5 minutes. A total of 100 μL of the supernatant in each well was transferred to a new 96-well plate and absorbance was measured at 490 nm using a microplate reader (Molecular Devices, USA).
For hemolysis assays, human erythrocytes were obtained from healthy donors, washed 3 times using sterilized PBS, and re-suspended to a concentration of 2% (v/v) with PBS. The HCN2016-01 peptide (SEQ ID NO: 2) and plectasin (control) were diluted to concentrations of 500; 250; 125; 62.5; 32; 16; 8; 4; 2; 1; and 0.5 μg/ml. A 100 μL of each peptide solution was mixed with a 100 μL solution of a red blood cell suspension and added to separate wells of a 96-well plate. PBS was used as negative control and Triton X-100 was used as a positive control. The samples were incubated at 37° C. for 60 minutes and gently stirred during the incubation period. The samples were then centrifuged at 2000 rpm for 5 minutes. A total of 100 μL of the supernatant in each well was transferred to a new 96-well plate and absorbance was measured at 490 nm using a microplate reader (Molecular Devices, USA).

Molecule | Minimal inhibitory concentration (MIC) [1] | Minimal inhibitory concentration (MIC) (S. aureus ATCC 6538 [2]) | antimicrobial activity compared to wild type hegrisin (in words) (S. aureus ATCC 6538 [2]) | Activity (antimicrobial activity relative to unmodified hegrisin, zones of growth inhibition) (S. aureus ATCC 6538 [3]) | Minimal inhibitory concentration (MIC) [4] | antimicrobial activity compared to wild type hegrisin (in words) [1] | antimicrobial activity compared to wild type hegrisin (in words) ([4]; S. epidermidis ATCC 14990) | change of cell lysis with rising concentration (human erythrocytes; concentration increased from 62.5 μg/ml to 500 μg/ml) | cell lysis (hemolysis) of human erythrocytes (human erythrocytes)
CC[C@H](C)[C@@H]1NC(=O)CNC(=O)CNC(=O)[C@H](Cc2ccccc2)NC(=O)[C@H](CCCCN)NC(=O)[C@@H]2CSSC[C@H](NC(=O)CNC(=O)[C@H](Cc3c[nH]c4ccccc34)NC(=O)CN)C(=O)NCC(=O)N[C@@H](Cc3ccccc3)C(=O)N[C@@H](Cc3ccccc3)C(=O)NCC(=O)NCC(=O)N[C@@H](CC(N)=O)C(=O)N[C@@H](CC(=O)O)C(=O)N[C@@H](CCC(=O)O)C(=O)N3CCC[C@H]3C(=O)N[C@H]3CSSC[C@H](NC1=O)C(=O)N[C@@H](CCCCN)C(=O)N[C@H](C(=O)N[C@@H](Cc1ccc(O)cc1)C(=O)O)CSSC[C@H](NC(=O)[C@H](Cc1c[nH]cn1)NC(=O)[C@H](CCC(N)=O)NC(=O)[C@H](Cc1c[nH]cn1)NC3=O)C(=O)N[C@@H](CCCCN)C(=O)N[C@@H](CO)C(=O)N[C@@H]([C@@H](C)CC)C(=O)N[C@@H](CCCNC(=N)N)C(=O)NCC(=O)N[C@@H](Cc1ccc(O)cc1)C(=O)N[C@@H](CCCNC(=N)N)C(=O)NCC(=O)NCC(=O)N[C@@H](Cc1ccc(O)cc1)C(=O)N2 [HCN2016-05] (H-GWGCGFFGGNDEPCHQHCKSIRGYRGGYCKFGGICKCY-OH; disulfide 4-29, 14-35, 18-37 (inferred); N-terminus and C-terminus assumed) | 2.88 µg/mL (≈ 0.688 µM) | 1.44 µg/mL (≈ 0.344 µM) | improved antimicrobial activity | 2 | 2.80 µg/mL (≈ 0.669 µM) | – | – | – | –
CC[C@H](C)[C@@H]1NC(=O)CNC(=O)CNC(=O)[C@H](Cc2ccccc2)NC(=O)[C@H](CCCCN)NC(=O)[C@@H]2CSSC[C@H](NC(=O)[C@H](CO)NC(=O)[C@H](Cc3c[nH]c4ccccc34)NC(=O)CN)C(=O)N[C@@H](CC(N)=O)C(=O)N[C@@H]([C@@H](C)CC)C(=O)N[C@@H](Cc3c[nH]c4ccccc34)C(=O)NCC(=O)NCC(=O)N[C@@H](CC(N)=O)C(=O)N[C@@H](CC(=O)O)C(=O)N[C@@H](CCC(=O)O)C(=O)N3CCC[C@H]3C(=O)N[C@H]3CSSC[C@H](NC1=O)C(=O)N[C@@H](CCCCN)C(=O)N[C@H](C(=O)N[C@@H](Cc1ccc(O)cc1)C(=O)O)CSSC[C@H](NC(=O)[C@H](Cc1c[nH]cn1)NC(=O)[C@H](CCC(N)=O)NC(=O)[C@H](Cc1c[nH]cn1)NC3=O)C(=O)N[C@@H](CCCCN)C(=O)N[C@@H](CO)C(=O)N[C@@H]([C@@H](C)CC)C(=O)N[C@@H](CCCNC(=N)N)C(=O)NCC(=O)N[C@@H](Cc1ccc(O)cc1)C(=O)N[C@@H](CCCNC(=N)N)C(=O)NCC(=O)NCC(=O)N[C@@H](Cc1ccc(O)cc1)C(=O)N2 [HCN2016-02] (H-GWSCNIWGGNDEPCHQHCKSIRGYRGGYCKFGGICKCY-OH; disulfide 4-29, 14-35, 18-37 (inferred); N-terminus and C-terminus assumed) | 2.80 µg/mL (≈ 0.654 µM) | 1.40 µg/mL (≈ 0.327 µM) | improved antimicrobial activity | 2 | 1.40 µg/mL (≈ 0.327 µM) | – | – | – | –
CC[C@H](C)[C@@H]1NC(=O)[C@H](CO)NC(=O)[C@H](CCCCN)NC(=O)[C@@H]2CSSC[C@@H](C(=O)N[C@@H](Cc3ccc(O)cc3)C(=O)O)NC(=O)[C@H](CCCCN)NC(=O)[C@@H]3CSSC[C@H](NC(=O)[C@@H]4CCCN4C(=O)[C@H](CCCCN)NC(=O)[C@H](CC(=O)O)NC(=O)[C@H](CC(N)=O)NC(=O)CNC(=O)CNC(=O)[C@H](Cc4ccccc4)NC(=O)[C@H]([C@@H](C)CC)NC(=O)[C@H]([C@@H](C)O)NC(=O)[C@@H](NC(=O)CNC(=O)[C@H](Cc4ccccc4)NC(=O)CN)CSSC[C@H](NC(=O)[C@H](Cc4ccc(O)cc4)NC(=O)CNC(=O)CNC(=O)[C@H](CCCCN)NC(=O)[C@H](Cc4ccc(O)cc4)NC(=O)CNC(=O)[C@H](CCCCN)NC1=O)C(=O)N[C@@H](CCCCN)C(=O)N[C@@H](C(C)C)C(=O)NCC(=O)NCC(=O)N[C@@H](C(C)C)C(=O)N3)C(=O)N[C@@H](Cc1c[nH]cn1)C(=O)N[C@@H](CCCNC(=N)N)C(=O)N[C@@H](Cc1c[nH]cn1)C(=O)N2 [HCN2016-03] (H-GFGCTIFGGNDKPCHRHCKSIKGYKGGYCKVGGVCKCY-OH; disulfide 4-29, 14-35, 18-37 (inferred); N-terminus and C-terminus assumed) | 0.81 µg/mL (≈ 0.199 µM) | 1.33 µg/mL (≈ 0.327 µM) | improved antimicrobial activity | 2 | 1.30 µg/mL (≈ 0.32 µM) | improved antimicrobial activity | – | – | –
CC[C@H](C)[C@@H]1NC(=O)CNC(=O)CNC(=O)[C@H](CC(C)C)NC(=O)[C@H](CCCCN)NC(=O)[C@@H]2CSSC[C@H](NC(=O)[C@H](CO)NC(=O)[C@H](Cc3c[nH]c4ccccc34)NC(=O)CN)C(=O)NCC(=O)N[C@@H](Cc3ccccc3)C(=O)N[C@@H](Cc3ccccc3)C(=O)NCC(=O)NCC(=O)N[C@@H](CC(N)=O)C(=O)N[C@@H](CC(=O)O)C(=O)N[C@@H](CCC(=O)O)C(=O)N3CCC[C@H]3C(=O)N[C@H]3CSSC[C@H](NC1=O)C(=O)N[C@@H](CCCCN)C(=O)N[C@H](C(=O)N[C@@H](Cc1ccc(O)cc1)C(=O)O)CSSC[C@H](NC(=O)[C@H](Cc1c[nH]cn1)NC(=O)[C@H](CCC(N)=O)NC(=O)[C@H](Cc1c[nH]cn1)NC3=O)C(=O)N[C@@H](CCCCN)C(=O)N[C@@H](CO)C(=O)N[C@@H]([C@@H](C)CC)C(=O)N[C@@H](CCCNC(=N)N)C(=O)NCC(=O)N[C@@H](Cc1ccc(O)cc1)C(=O)N[C@@H](CCCNC(=N)N)C(=O)NCC(=O)NCC(=O)N[C@@H](Cc1ccc(O)cc1)C(=O)N2 [HCN2016-04] (H-GWSCGFFGGNDEPCHQHCKSIRGYRGGYCKLGGICKCY-OH; disulfide 4-29, 14-35, 18-37 (inferred); N-terminus and C-terminus assumed) | 0.86 µg/mL (≈ 0.206 µM) | 0.40 µg/mL (≈ 0.0956 µM) | improved antimicrobial activity | 2 | 0.33 µg/mL (≈ 0.0789 µM) | improved antimicrobial activity | improved antimicrobial activity | – | –
plectasin: defensin antimicrobial peptide isolated from the mushroom Pseudoplectania nigrella; control in the hemolysis assay (GFGCNGPWDEDDMQCHNHCKSIKGYKGGYCAKGGFVCKCY; PLECTASIN) | – | – | – | – | – | – | – | increased significantly | lysis at nearly all concentrations
CC[C@H](C)[C@@H]1NC(=O)[C@H](CO)NC(=O)[C@H](CCCCN)NC(=O)[C@@H]2CSSC[C@@H](C(=O)N[C@@H](Cc3ccc(O)cc3)C(=O)O)NC(=O)[C@H](CCCCN)NC(=O)[C@@H]3CSSC[C@H](NC(=O)[C@@H]4CCCN4C(=O)[C@H](CCCCN)NC(=O)[C@H](CC(=O)O)NC(=O)[C@H](CC(N)=O)NC(=O)CNC(=O)CNC(=O)[C@H](Cc4c[nH]c5ccccc45)NC(=O)[C@H]([C@@H](C)CC)NC(=O)[C@H]([C@@H](C)O)NC(=O)[C@@H](NC(=O)CNC(=O)[C@H](Cc4ccccc4)NC(=O)CN)CSSC[C@H](NC(=O)[C@H](Cc4ccc(O)cc4)NC(=O)CNC(=O)CNC(=O)[C@H](CCCCN)NC(=O)[C@H](Cc4ccc(O)cc4)NC(=O)CNC(=O)[C@H](CCCCN)NC1=O)C(=O)N[C@@H](CCCCN)C(=O)N[C@@H](C(C)C)C(=O)NCC(=O)NCC(=O)N[C@@H](C(C)C)C(=O)N3)C(=O)N[C@@H](Cc1c[nH]cn1)C(=O)N[C@@H](CCCNC(=N)N)C(=O)N[C@@H](Cc1c[nH]cn1)C(=O)N2 [Hegrisin, reference compound] (H-GFGCTIWGGNDKPCHRHCKSIKGYKGGYCKVGGVCKCY-OH; disulfide 4-29, 14-35, 18-37; N-terminus and C-terminus assumed) | 1.34 µg/mL (≈ 0.326 µM) | 1.67 µg/mL (≈ 0.407 µM) | – | 1 | 0.38 µg/mL (≈ 0.0926 µM) | – | – | – | no significant lysis
